# Test results taken from publication PMC11750622, “Structural insights into translocation and tailored synthesis of hyaluronan” (Nature Structural & Molecular Biology, 2024).
# T1: CvHAS (Paramecium bursaria Chlorella virus CZ-2, UniProt Z9D3Q5ADJ6)
# T1 construct: pET28a-CvHAS, Ni-NTA purified, expressed in E. coli C43; MSP1E3D1 nanodiscs with nanobodies for cryo-EM, IMVs for activity
# T1 sequence (Z9D3Q5ADJ6 1-562): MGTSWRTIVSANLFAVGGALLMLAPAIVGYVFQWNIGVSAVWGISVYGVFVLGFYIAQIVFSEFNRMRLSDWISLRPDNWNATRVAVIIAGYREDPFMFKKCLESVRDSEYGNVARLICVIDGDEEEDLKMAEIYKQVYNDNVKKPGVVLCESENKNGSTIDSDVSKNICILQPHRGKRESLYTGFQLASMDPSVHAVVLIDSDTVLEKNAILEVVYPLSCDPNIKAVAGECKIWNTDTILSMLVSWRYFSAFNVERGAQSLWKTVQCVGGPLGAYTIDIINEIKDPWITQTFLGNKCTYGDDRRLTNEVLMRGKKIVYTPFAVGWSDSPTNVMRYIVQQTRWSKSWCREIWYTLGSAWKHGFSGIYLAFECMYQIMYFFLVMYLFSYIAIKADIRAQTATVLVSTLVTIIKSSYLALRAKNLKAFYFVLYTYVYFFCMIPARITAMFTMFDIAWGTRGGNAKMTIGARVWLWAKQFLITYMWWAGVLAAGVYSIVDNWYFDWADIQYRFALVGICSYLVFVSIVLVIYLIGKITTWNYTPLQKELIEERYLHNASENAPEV
# T2: XlHAS1 (Xenopus laevis, UniProt P13563)
# T2 construct: gene has1; full-length, N-terminal 12xHis tag, expressed in Sf9 cells, purified in GDN detergent, monomer
# T2 sequence (P13563 1-588): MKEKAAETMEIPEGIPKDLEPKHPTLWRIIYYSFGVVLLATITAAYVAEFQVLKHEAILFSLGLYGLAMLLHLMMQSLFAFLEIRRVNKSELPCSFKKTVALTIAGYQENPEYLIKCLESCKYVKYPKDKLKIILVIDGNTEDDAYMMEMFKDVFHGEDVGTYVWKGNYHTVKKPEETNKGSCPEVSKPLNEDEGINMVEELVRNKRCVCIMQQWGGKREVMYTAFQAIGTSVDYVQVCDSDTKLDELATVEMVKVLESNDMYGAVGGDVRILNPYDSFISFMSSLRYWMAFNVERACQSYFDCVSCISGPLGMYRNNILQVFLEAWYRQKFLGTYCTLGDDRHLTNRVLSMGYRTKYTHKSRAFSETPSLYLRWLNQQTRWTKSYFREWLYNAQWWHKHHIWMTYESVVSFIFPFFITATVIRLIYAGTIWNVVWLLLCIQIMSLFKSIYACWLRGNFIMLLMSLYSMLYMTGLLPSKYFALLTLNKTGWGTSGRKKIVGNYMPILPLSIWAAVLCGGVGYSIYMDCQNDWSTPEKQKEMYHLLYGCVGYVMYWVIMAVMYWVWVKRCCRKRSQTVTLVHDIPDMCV
# B1: noninhibitory antibody Fab fragment against XlHAS1 (Fab, V domains shown)
# VH: EVQLVESGGGLVQPGGSLRLSCAASGFNVSSYYIHWVRQAPGKGLEWVASISSSSGSTSYADSVKGRFTISADTSKNTAYLQMNSLRAEDTAVYYCARSGYYWGPYFGGFDYWGQGTLVTVSS
# VL: DIQMTQSPSSLSASVGDRVTITCRASQSVSSAVAWYQQKPGKAPKLLIYSASSLYSGVPSRFSGSRSGTDFTLTISSLQPEDFATYYCQQSSSSLITFGQGTKVEIK
# notes: source: selected from Fab phage library E on XlHAS1 nanodiscs
# What was measured:
# CvHAS [1] = target: T1, CvHAS; experiment: cryo-EM structure, […] Å; assay type: binding; settings: formed in situ from GlcNAc and UDP-GlcA; Mn2+; nanodisc with Nb881 and Nb872; also with UDP in 8SNE (3.0 Å)
# CvHAS [2] = settings: acceptor (primer) site; UDP-GlcA and Mn2+ present; nanodisc with Nb881 and Nb872; catalytically inactive mutant
# XlHAS1 = target: T2, XlHAS1; experiment: cryo-EM structure, […] Å; assay type: binding; settings: Mg2+; Fab complex in GDN; gating loop inserted; active site
# CvHAS [3] = target: T1, CvHAS; experiment: cryo-EM structure, […] Å; assay type: binding; settings: formed in situ from UDP-GlcNAc and UDP-GlcA; Mn2+; nanodisc with Nb886 and Nb872; minor UDP-GlcA state not excluded
# [4] = target: T3, Xenopus laevis HAS isoform 1 (Xenopus laevis, UniProt P13563); experiment: cryo-EM structure; GDN-solubilised XlHAS1 mixed with Fab at a 1:4 molar ratio, overnight at 4 °C, SEC on Superose 6 in 0.01% GDN; apo, HA-bound and UDP-bound samples; settings: both partners purified
# T3 construct: also called XlHAS1; DG42
molecule,measurement,setting,value
CC(=O)N[C@H]1C(O)O[C@H](CO)[C@@H](O)[C@@H]1O[C@@H]1O[C@H](C(=O)O)[C@@H](O)[C@H](O)[C@H]1O (some centres unmarked) [HA disaccharide],"cryo-EM structure, 3.3 Å",CvHAS [1],resolves a GlcNAc at the acceptor position that is elongated by a single sugar unit
CC(=O)N[C@H]1C(O)O[C@H](CO)[C@@H](O)[C@@H]1O (some centres unmarked) [GlcNAc],"cryo-EM structure, 3.2 Å",CvHAS [2],the GlcNAc primer is well resolved and occupies the same acceptor position
O=c1ccn([C@@H]2O[C@H](COP(=O)(O)OP(=O)(O)O)[C@@H](O)[C@H]2O)c(=O)[nH]1 [UDP],"cryo-EM structure, 3.2 Å",XlHAS1,UDP is coordinated by conserved motifs of the GT domain
same,"cryo-EM structure, 3.0 Å",CvHAS [3],exposure of WT CvHAS to both of its substrates resulted in a UDP–HA disaccharide-bound conformation
B1,binding result,[4],binds
